# From US9044463B2, “FSH receptor antagonists” (Merck Sharp & Dohme B.V., priority 2011, dated 2015)
# Target: T1, human FSH receptor (Homo sapiens, UniProt P23945)
# T1 construct: expressed in transfected cells; host or cells: CHO (Chinese Hamster Ovary) cells, stably transfected; cotransfected with a CRE-luciferase reporter
# T1 sequence (P23945 18-695): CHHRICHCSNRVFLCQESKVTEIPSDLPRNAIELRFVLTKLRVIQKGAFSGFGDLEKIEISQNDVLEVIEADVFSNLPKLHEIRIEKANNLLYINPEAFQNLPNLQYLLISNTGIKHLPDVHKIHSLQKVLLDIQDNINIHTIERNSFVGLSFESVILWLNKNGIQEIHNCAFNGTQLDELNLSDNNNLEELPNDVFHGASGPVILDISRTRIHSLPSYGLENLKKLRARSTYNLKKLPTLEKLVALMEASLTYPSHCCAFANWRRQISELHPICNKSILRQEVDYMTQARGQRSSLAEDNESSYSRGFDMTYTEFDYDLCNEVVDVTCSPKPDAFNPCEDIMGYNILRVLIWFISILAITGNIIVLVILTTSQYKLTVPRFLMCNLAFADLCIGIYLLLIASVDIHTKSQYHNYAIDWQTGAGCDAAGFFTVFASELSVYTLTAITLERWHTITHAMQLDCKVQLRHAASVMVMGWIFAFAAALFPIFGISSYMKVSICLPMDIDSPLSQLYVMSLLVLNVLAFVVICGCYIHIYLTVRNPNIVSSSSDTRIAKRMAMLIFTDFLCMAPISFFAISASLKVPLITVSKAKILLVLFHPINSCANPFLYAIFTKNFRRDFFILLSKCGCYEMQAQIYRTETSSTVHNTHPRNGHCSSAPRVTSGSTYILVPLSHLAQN
# Assay: Antagonistic activity at the human FSH receptor expressed in CHO cells (CRE-luciferase reporter)
# Format: cell-based
# Conditions: CHO cells stably transfected with human FSH receptor and CRE-luciferase; with 49 μM recFSH; 4 hours incubation; read-out: IC50 (inhibition of recFSH-induced luciferase stimulation)
# Experimental: Antagonistic Activity of Compounds at the Human FSH Receptor Expressed in CHO Cells
# Antagonistic activity of the compounds at the human FSH receptor was determined in Chinese Hamster Ovary (CHO) cells stably transfected with the human FSH receptor and cotransfected to with a cAMP responsive element (CRE)/promoter directing the expression of a firefly luciferase reporter gene. Binding of the compounds to the Gs protein-coupled FSH receptor will result in an increase of cAMP, which in turn will induce an increased transactivation of the luciferase reporter. The cells (7,500 cells/well of a 384 well plate) were incubated in Dulbecco′ minimal essential F12 modified medium (Invitrogen), supplemented with 1 μg/ml bovine insulin, 5 μg/ml human apo-transferrin, 100 U/ml penicillin G and 100 μg/ml streptomycin with the test compounds (concentration between 0.316 nM and 10.0 μM) in duplicate together with […] recFSH (which, at this concentration in the absence of test compound, induces 80% of the maximal luciferase stimulation) in a humidified atmosphere (95%) at 5-7% CO2 and 37° C. The final concentration of DMSO was 1%. After 4 hours of incubation, plates were allowed to adjust to room temperature for 1 hour. Then, SteadyLite (PerkinElmer) solution was added to the wells and cells were allowed to lyse for at least 1 hour at room temperature. Subsequently, luciferase activity was measured in a luminescence counter. The signal is expressed as counts per second (cps). The IC50 (concentration of test compound causing half-maximal (50%) inhibition of the maximally attainable inhibition of the luciferase stimulation by the compound) and efficacy of the compounds were determined using the software program MathIQ (version 2.3, ID Business Solutions Limited).
row,SMILES,IC50
1,"C=CCOc1cc2c(cc1C(=O)N[C@@H](CO)Cc1c[nH]c3ccccc13)-c1cc(OC)c(OC)cc1CC2 [Example 13, (R)-2-(allyloxy)-N-(1-hydroxy-3-(1H-indol-3-yl)propan-2-yl)-6,7-dimethoxy-9,10-dihydrophenanthrene-3-carboxamide]",100 to 1000 nM
2,"COc1cc2c(cc1OC)-c1cc(C(=O)N[C@@H](CO)Cc3c[nH]c4ccccc34)c(OC(F)F)cc1CC2 [Example 11, (R)-2-(difluoromethoxy)-N-(1-hydroxy-3-(1H-indol-3-yl)propan-2-yl)-6,7-dimethoxy-9,10-dihydrophenanthrene-3-carboxamide]",< 100 nM
3,"COc1cc2c(cc1OC)-c1cc(C(=O)N[C@@H](CO)Cc3c[nH]c4ccccc34)c(-c3c(C)n[nH]c3C)cc1OC2 [Example 38, 3-(3,5-dimethyl-1H-pyrazol-4-yl)-N—((R)-1-hydroxy-3-(1H-indol-3-yl)propan-2-yl)-8,9-dimethoxy-6H-benzo[c]chromene-2-carboxamide]",< 100 nM
4,"COc1cc2c(c(OC)c1OC)CCc1cc(-c3cccc(F)c3F)c(C(=O)N[C@@H](CO)Cc3c[nH]c4ccccc34)cc1-2 [Example 3, 2-(2,3-difluorophenyl)-N—((R)-1-hydroxy-3-(1H-indol-3-yl)propan-2-yl)-6,7,8-trimethoxy-9,10-dihydrophenanthrene-3-carboxamide]",< 100 nM
5,"COc1cc2c(cc1OC)-c1cc(C(=O)N[C@@H](CO)Cc3c[nH]c4ccccc34)c(CC(C)C)cc1OC2 [Example 42, (R)—N-(1-hydroxy-3-(1H-indol-3-yl)propan-2-yl)-3-isobutyl-8,9-dimethoxy-6H-benzo[c]chromene-2-carboxamide]",< 100 nM
6,"COc1cc2c(cc1-c1cnn(C)c1)COc1cc(-c3ccccc3F)c(C(=O)N[C@@H](CO)Cc3c[nH]c4ccccc34)cc1-2 [Example 51, 3-(2-fluorophenyl)-N—((R)-1-hydroxy-3-(1H-indol-3-yl)propan-2-yl)-9-methoxy-8-(1-methyl-1H-pyrazol-4-yl)-6H-benzo[c]chromene-2-carboxamide]",< 100 nM

# Results, then the molecule that gave them:
row,IC50,SMILES
1,< 100 nM,"COc1cc2c(cc1OC)-c1cc(C(=O)N[C@@H](CO)Cc3c[nH]c4ccccc34)c(-c3ccccc3F)cc1OC2 [Example 36, 3-(2-fluorophenyl)-N—((R)-1-hydroxy-3-(1H-indol-3-yl)propan-2-yl)-8,9-dimethoxy-6H-benzo[c]chromene-2-carboxamide]"
2,< 100 nM,"COc1cc2c(cc1OCC1CC1)COc1cc(-c3ccccc3F)c(C(=O)N[C@@H](CO)Cc3c[nH]c4ccccc34)cc1-2 [Example 49, 8-(cyclopropylmethoxy)-3-(2-fluorophenyl)-N—((R)-1-hydroxy-3-(1H-indol-3-yl)propan-2-yl)-9-s methoxy-6H-benzo[c]chromene-2-carboxamide]"
